Earlier results, collected in US20180318450A1, “ENHANCED SURGICAL VISUALIZATION OF VIABLE TISSUE WITH SELECTIVE DYE” (priority 2017, published 2018).
Starred links: 1 amine or outer side, 2 acyl side, 3 side chain; linkers in the order of their positions; H or OH if unused. Positions of bridges follow the written chain, without caps; N, C: chain ends. Non-standard residues stand in square brackets, D forms with d. Residues, ends and D or L forms follow the SMILES beside them. Trp(2-yl) = O=C([C@H](Cc1c([*:3])[nH]c2ccccc12)N[*:1])[*:2]; Leu(4R-OH,5-OH) = C[C@](O)(CO)C[C@H](N)C(=O)O; cisHyp = O=C(O)[C@@H]1C[C@H](O)CN1

System: tumor proliferation
Settings: toxin attached to C-terminus of ph low insertion peptide, cells in acidic environment

For `C[C@@H]1NC(=O)[C@H](C[C@@](C)(O)CO)NC(=O)[C@@H]2Cc3c([nH]c4ccccc34)SC[C@H](NC(=O)[C@@H]([C@H](C)O)NC1=O)C(=O)N1C[C@@H](O)C[C@H]1C(=O)N[C@@H](C)C(=O)N2` [phalloidin] (cyclo(A[dT]C[cisHyp]A[Trp(2-yl)][Leu(4R-OH,5-OH)]); thioether 3-6), the tumor proliferation is listed as “prohibited tumor proliferation”.
